Experimental data from patent US20250360235A1, “RADI[…] AND METHOD FOR RADIOLABELLING” (Telix Innovations SA, priority 2024, published 2025).

How the values were obtained:
[1] = Radiochemical purity by HPLC over time after radiolabelling; type: physicochemical
Method: (§1) Table 1 to Table 5 show the results of various radiolabelling experiments on radiochemical purity and the chelation yield. The radiolabelling experiments in the tables are carried out as described in: • Example 1 for when the gallium-68 source is GE Liquid target generator and EZAG GalliaPharm generator; • Example 2 for when the gallium-68 source is IRE Galli Eo generator; • Example 3 for when the gallium-68 source is GE solid target generator;
(§2) However, the experiments were carried out with the amount of ascorbic acid as indicated in the Tables 1 to 5, and the activity as indicated in the Tables 1 to 5. Radiochemical purities were measured at various times (T0, T1, T4, T6) after the radiolabelled experiments have been conducted.
(§3) The kits of Example 1, Example 2 or Example 3, with amounts of ascorbic acid as set out in Table 7 were used in the experiments for the ascorbic acid bracketing matrix. Three strengths of [^68Ga]Ga-PSMA-11 will be tested, i.e. 50 mCi/ml, 7 mCi/ml and 1 mCi/ml. Radiochemical purity was determined at different time points (TO, T1, T4 or T6), as set out in Table 7.

[2] = Drug product stability against radiolysis with ascorbic acid; type: physicochemical
Method: as §1, §2, §3

Q: Which “Radiochemical Purity (HPLC) Ga-68 PSMA-11 (%)” value (“Radiochemical Purity … (%)” below) ([1]; bracketing ~1 mCi/mL, 18.75 mg ascorbic acid, 8.9-11.5 mCi, 0.85-1.09 mCi/mL, IRE Galli Eo, average of 2, T1 (1 h)) does the source give for `O=C([O-])CN(CCN(CC(=O)[O-])Cc1cc(CCC(=O)NCCCCCC(=O)NCCCC[C@H](NC(=O)N[C@@H](CCC(=O)O)C(=O)O)C(=O)O)ccc1[O-])Cc1cc(CCC(=O)O)ccc1[O-].[68Ga+3].[OH3+]` [[^68Ga]PSMA-11, gallium-68 radiolabelled Glu-urea-Lys-HBED-CC (gozetotide or PSMA-11)] here?
A: 100%

Q: What about the “Radiochemical Purity … (%)” value ([1]; bracketing ~1 mCi/mL, 25 mg ascorbic acid, 8.8-12.7 mCi, 0.84-1.21 mCi/mL, 2 × IRE Galli Eo, average of 2, T0) of the same compound?
A: 99%

Q: And the “Radiochemical Purity … (%)” value ([1]; bracketing ~1 mCi/mL, 25 mg ascorbic acid, 8.8-12.7 mCi, 0.84-1.21 mCi/mL, 2 × IRE Galli Eo, average of 2, T1 (1 h))?
A: 100%

Q: What about the “Radiochemical Purity … (%)” value ([1]; bracketing ~1 mCi/mL, 31.25 mg ascorbic acid, 15.2-26.9 mCi, 1.44-2.54 mCi/mL, EZAG GalliaPharm, average of 2, T0) of the same compound?
A: 100%

Q: What about the “Radiochemical Purity … (%)” value ([1]; bracketing ~1 mCi/mL, 31.25 mg ascorbic acid, 15.2-26.9 mCi, 1.44-2.54 mCi/mL, EZAG GalliaPharm, average of 2, T1 (1 h)) of the same compound?
A: 100%

Q: And the “Radiochemical Purity … (%)” value ([1]; bracketing ~7 mCi/mL, 18.75 mg ascorbic acid, 51.0-58.0 mCi, 5.55-6.5 mCi/mL, IRE Galli Eo, average of 2, T0)?
A: 100%

Q: And the “Radiochemical Purity … (%)” value ([1]; bracketing ~7 mCi/mL, 18.75 mg ascorbic acid, 51.0-58.0 mCi, 5.55-6.5 mCi/mL, IRE Galli Eo, average of 2, T4 (4 h))?
A: 100%

Q: What about the “Radiochemical Purity … (%)” value ([1]; bracketing ~7 mCi/mL, 25 mg ascorbic acid, 51.6-74.4 mCi, 4.56-6.92 mCi/mL, 3 × GE Liquid Target, 3 × IRE Galli Eo, 3 × EZAG GalliaPharm, average of 9, T0) of the same compound?
A: 100%

Q: What about the “Radiochemical Purity … (%)” value ([1]; bracketing ~7 mCi/mL, 25 mg ascorbic acid, 51.6-74.4 mCi, 4.56-6.92 mCi/mL, 3 × GE Liquid Target, 3 × IRE Galli Eo, 3 × EZAG GalliaPharm, average of 9, T4 (4 h)) of the same compound?
A: 100%

Q: And the “Radiochemical Purity … (%)” value ([1]; bracketing ~7 mCi/mL, 31.25 mg ascorbic acid, 61.5-62.0 mCi, 5.85-5.88 mCi/mL, EZAG GalliaPharm, average of 2, T0)?
A: 100%

Q: What about the “Radiochemical Purity … (%)” value ([1]; bracketing ~7 mCi/mL, 31.25 mg ascorbic acid, 61.5-62.0 mCi, 5.85-5.88 mCi/mL, EZAG GalliaPharm, average of 2, T4 (4 h)) of the same compound?
A: 100%

Q: What about the “Radiochemical Purity … (%)” value ([1]; bracketing ~50 mCi/mL, 20 mg ascorbic acid, 514-544 mCi, 48.3-51.9 mCi/mL, GE Solid Target, average of 2, T0) of the same compound?
A: 100%

Q: And the “Radiochemical Purity … (%)” value ([1]; bracketing ~50 mCi/mL, 20 mg ascorbic acid, 514-544 mCi, 48.3-51.9 mCi/mL, GE Solid Target, average of 2, T6 (6 h))?
A: 100%

Q: And the “Radiochemical Purity … (%)” value ([1]; bracketing ~50 mCi/mL, 25 mg ascorbic acid, 537-551 mCi, 50.2-51.6 mCi/mL, GE Solid Target, average of 3, T0)?
A: 100%

Q: What about the “Radiochemical Purity … (%)” value ([1]; bracketing ~50 mCi/mL, 25 mg ascorbic acid, 537-551 mCi, 50.2-51.6 mCi/mL, GE Solid Target, average of 3, T6 (6 h)) of the same compound?
A: 100%

Q: And the “Radiochemical Purity … (%)” value ([1]; bracketing ~50 mCi/mL, 31.25 mg ascorbic acid, 500-544 mCi, 48.1-51.7 mCi/mL, GE Solid Target, average of 2, T0)?
A: 100%

Q: And the “Radiochemical Purity … (%)” value ([1]; bracketing ~50 mCi/mL, 31.25 mg ascorbic acid, 500-544 mCi, 48.1-51.7 mCi/mL, GE Solid Target, average of 2, T6 (6 h))?
A: 100%

Q: What about the “Radiochemical Purity … (%)” value ([1]; validation batches, 25 mg ascorbic acid, 51.6-62.7 mCi, 4.56-5.88 mCi/mL, IRE Galli Eo, average of 3, T0) of the same compound?
A: 100%

Q: And the “Radiochemical Purity … (%)” value ([1]; validation batches, 25 mg ascorbic acid, 51.6-62.7 mCi, 4.56-5.88 mCi/mL, IRE Galli Eo, average of 3, T4 (4 h))?
A: 100%

Q: And the “Radiochemical Purity … (%)” value ([1]; validation batches, 25 mg ascorbic acid, 51.6-62.7 mCi, 4.56-5.88 mCi/mL, IRE Galli Eo, n=3, T0)?
A: C (C = all results conform to specifications)

Q: What about the “Radiochemical Purity … (%)” value ([1]; validation batches, 25 mg ascorbic acid, 51.6-62.7 mCi, 4.56-5.88 mCi/mL, IRE Galli Eo, n=3, T4 (4 h)) of the same compound?
A: C (C = all results conform to specifications)

Q: And the “Radiochemical Purity … (%)” value ([1]; validation batches, 25 mg ascorbic acid, 53.3-74.4 mCi, 5.03-6.92 mCi/mL, GE Liquid target, average of 3, T0)?
A: 99%

Q: And the “Radiochemical Purity … (%)” value ([1]; validation batches, 25 mg ascorbic acid, 53.3-74.4 mCi, 5.03-6.92 mCi/mL, GE Liquid target, average of 3, T4 (4 h))?
A: 100%

Q: What about the “Radiochemical Purity … (%)” value ([1]; validation batches, 25 mg ascorbic acid, 53.3-74.4 mCi, 5.03-6.92 mCi/mL, GE Liquid target, n=3, T0) of the same compound?
A: C (C = all results conform to specifications)

Q: And the “Radiochemical Purity … (%)” value ([1]; validation batches, 25 mg ascorbic acid, 53.3-74.4 mCi, 5.03-6.92 mCi/mL, GE Liquid target, n=3, T4 (4 h))?
A: C (C = all results conform to specifications)

Q: And the “Radiochemical Purity … (%)” value ([1]; validation batches, 25 mg ascorbic acid, 65.0-66.4 mCi, 5.74-6.15 mCi/mL, EZAG GalliaPharm, average of 3, T0)?
A: 100%

Q: What about the “Radiochemical Purity … (%)” value ([1]; validation batches, 25 mg ascorbic acid, 65.0-66.4 mCi, 5.74-6.15 mCi/mL, EZAG GalliaPharm, average of 3, T4 (4 h)) of the same compound?
A: 100%

Q: What about the “Radiochemical Purity … (%)” value ([1]; validation batches, 25 mg ascorbic acid, 65.0-66.4 mCi, 5.74-6.15 mCi/mL, EZAG GalliaPharm, n=3, T0) of the same compound?
A: C (C = all results conform to specifications)

Q: What about the “Radiochemical Purity … (%)” value ([1]; validation batches, 25 mg ascorbic acid, 65.0-66.4 mCi, 5.74-6.15 mCi/mL, EZAG GalliaPharm, n=3, T4 (4 h)) of the same compound?
A: C (C = all results conform to specifications)

Q: And the “Radiochemical Purity (HPLC) Ga-68 PSMA-11” value ([1]; validation batches, 25 mg ascorbic acid, 537-551 mCi, 50.2-51.6 mCi/mL, GE Solid Target, average of 3, T0)?
A: 100%

Q: And the “Radiochemical Purity (HPLC) Ga-68 PSMA-11” value ([1]; validation batches, 25 mg ascorbic acid, 537-551 mCi, 50.2-51.6 mCi/mL, GE Solid Target, average of 3, T6 (6 h))?
A: 100%

Q: And the “Radiochemical Purity (HPLC) Ga-68 PSMA-11” value ([1]; validation batches, 25 mg ascorbic acid, 537-551 mCi, 50.2-51.6 mCi/mL, GE Solid Target, n=3, T0)?
A: C (C = all results conform to specifications)

Q: What about the “Radiochemical Purity (HPLC) Ga-68 PSMA-11” value ([1]; validation batches, 25 mg ascorbic acid, 537-551 mCi, 50.2-51.6 mCi/mL, GE Solid Target, n=3, T6 (6 h)) of the same compound?
A: C (C = all results conform to specifications)

Q: And the “Radiochemical Purity (HPLC) Ga-68 PSMA-11” value ([1]; validation batches, 25 mg ascorbic acid, 555-564 mCi, 51.1-52.7 mCi/mL, ARTMS Solid Target, average of 3, T0)?
A: 99%

Q: What about the “Radiochemical Purity (HPLC) Ga-68 PSMA-11” value ([1]; validation batches, 25 mg ascorbic acid, 555-564 mCi, 51.1-52.7 mCi/mL, ARTMS Solid Target, average of 3, T6 (6 h)) of the same compound?
A: 100%

Q: What about the “Radiochemical Purity (HPLC) Ga-68 PSMA-11” value ([1]; validation batches, 25 mg ascorbic acid, 555-564 mCi, 51.1-52.7 mCi/mL, ARTMS Solid Target, n=3, T0) of the same compound?
A: C (C = all results conform to specifications)

Q: And the “Radiochemical Purity (HPLC) Ga-68 PSMA-11” value ([1]; validation batches, 25 mg ascorbic acid, 555-564 mCi, 51.1-52.7 mCi/mL, ARTMS Solid Target, n=3, T6 (6 h))?
A: C (C = all results conform to specifications)

Q: What about the “time for which stability is maintained” value ([2]; 20 mg ascorbic acid, highest strength 48.3-51.9 mCi/mL (worst case), Table 8) of the same compound?
A: up to 6 hours

Q: What about the “time for which the formulation is stabilized” value ([2]; 25 mg ascorbic acid, Table 3) of the same compound?
A: up to 4 hours

Q: And the “time for which ascorbic acid is an effective radio-stabilizer / stability maintained” value ([2]; 10-50 mg ascorbic acid, 458-560 mCi starting activity, 48.3-71.1 mCi/mL, Table 2)?
A: up to 6 hours

Q: And the stability ([2]; 18.75-31.25 mg ascorbic acid, 5.1-5.88 mCi/mL and 0.84-2.54 mCi/mL, Tables 9 and 10)?
A: stability of the [^68Ga]PSMA-11 is maintained
